Legend:
Assay type in all cases: cell-based, human
HeLa cell line [1] = test: Production of extracellular vesicles, observed by optical microscope (bright field); details: solution of Example 1 (250 mM sucrose), peptide final concentration 20 μM, after 10 minutes
Description: After the HeLa cell line was cultured in a 6-well plate, the culture was removed, and then the HeLa cell line was treated with the solution in Example 1.
The control group was not treated with any peptide, and the experiment group was treated with eMTDΔ4 peptide of SEQ ID NO: 2 (final concentration: 20 μM). After 10 minutes, the generation of extracellular vesicles was observed by an optical microscope (bright field), and the observation results are shown in FIG. 1.
Extracellular vesicle production was carried out by the experimental method of Experimental Example 2-1 using the R(8):MTD peptide of SEQ ID NO: 4 and the solutions of Example 1 and Comparative Examples 1 to 18, and the results are shown in FIGS. 2A to 2S.
Extracellular vesicle production was carried out by the experimental method of Example 2-1 using the R(8):MTD peptide of SEQ ID NO: 4 and the solutions of Examples 1 to 3 on Table 3, and the results are shown in FIGS. 3A to 3C.

HeLa cell line [2] = test: Loading of doxorubicin in extracellular vesicles, confocal microscope; details: HeLa expressing EGFP-HSP90; peptide 25 μM; doxorubicin 100 μM; solution of Example 1; after 10 minutes
Description: Doxorubicin, which is a drug passing through cell membranes well, is used to treat cancers, such as breast cancer, bladder cancer, Kaposi's sarcoma, lymphoma, or acute lymphoblastic leukemia. First, the HeLa cell line was cultured in a 12-well plate overnight, then transfected with a plasmid expressing EGFP-HSP90 using effectene, and then the culture was replaced after 4 hours. The next day, the culture was removed from the HeLa cell line to prepare a cell line.
The control group was treated with only doxorubicin without any peptide, and the experiment group was treated with the eMTDΔ4 peptide (final concentration: 25 μM) and doxorubicin (final concentration: 100 μM), which have been dissolved in the solution of Example 1, and then after 10 minutes, the groups were observed by a confocal microscope.

HeLa cell line [3] = test: Extracellular vesicle morphology, EGFP-HSP90 transfected cells, confocal microscope; details: HeLa transfected with pEGFP-HSP90; solution of Example 1; 20 μM; after 10 minutes
Description: In order to transfect the HSP90 protein, an exosome indicator, into the HeLa cell line, the HeLa cell line was cultured overnight in a 6-well plate, and then treated with a plasmid into which Effectene and pEGFP-HSP90 were cloned, and after 4 hours, the culture was replaced.
The next day, the culture was removed from the HeLa cell line, and the solution of Example 1 was added. A control group was not treated with any peptide, and an experiment group was treated with the eMTDΔ4 peptide of SEQ ID NO: 2 (final concentration: 20 μM). The HSP90 protein was excited using an argon laser of 488 nm. After 10 minutes, the control group and the experiment group were observed using a confocal microscope (Leica TCS SP5 Microsystems), and the results are shown in FIG. 4.

293-HEK cell line [4] = test: Loading of recombinant TRAIL protein in extracellular vesicles, SDS-acrylamide gel; details: Recombinant TRAIL + (2 μg/ml), Peptide + (25 μM), solution of Example 1
Description: After the 293-HEK cell line was cultured to 90% confluency in a 6-well plate, the culture was removed, and the cell line was treated with the eMTDΔ4 peptide (final concentration: 25 μM) and the recombinant TRAIL, which have been dissolved to concentrations of 25 μM and 2 μg/ml in the solution of Example 1, respectively. The supernatant was collected, and PEG (final concentration: 8%) was added, followed by centrifugation at an RCF of 12000 for 10 minutes, thereby settling extracellular vesicles, and the extracellular vesicles were loaded on the SDS-acrylamide gel to check the TRAIL protein.

HeLa cell line [5] = test: Extracellular vesicle production, mEmerald-CD9 / mCherry-CD81 transfected cells, confocal imaging every 2 seconds; details: solution of Example 1, 20 μM
Description: The HeLa cell line was cultured in a 12-well plate overnight, and in order to identify the CD9 protein, an extracellular vesicle indicator, the HeLa cell line was treated with a plasmid into which Effectene and mEmerald-CD9 were cloned, and after 4 hours, the culture was replaced.
The next day, the culture was removed from the HeLa cell line, and the HeLa cell line was treated with the solution of Example 1. After each HeLa cell line was treated with the eMTDΔ4 peptide (final concentration: 20 μM), a laser having a wavelength of 488 nm was used to excite mEmerald-CD9.
In order to identify the CD81 protein, an extracellular vesicle indicator, the same procedure as in the method for observing the CD9 protein was performed except that the HeLa cells were treated with a plasmid into which mCherry-CD81 instead of mEmerald-CD9 was cloned and mCherry-CD81 was excited using a laser having a wavelength of 561 nm, and the results are shown in FIG. 5B.

293-HEK cell line [6] = test: Extracellular vesicle output quantified by Bradford solution
Description: The 293-HEK cell line was cultured in a 6-well plate at a rate of 2×10^5 cells/mL, and the next day, the cell line was treated with the solution of Example 1 and a peptide of any one of SEQ ID NOs: 1 to 21. […], the solution was removed, followed by centrifugation at an RCF of 12000, and the extracellular vesicles were quantified using the supernatant by Bradford solution.

293-HEK cell line [7] = test: Extracellular vesicle size and quantity by Nanoparticle Tracking Analysis (NTA); details: 50-fold diluted, solution of Example 1, peptide 20 μm, after 20 minutes
Description: After the 293-HEK cell line was cultured to 90% confluency (about 2×10^7 cells) in a 10-cm culture dish, the culture was removed, and the cells were treated with the eMTDΔ4 peptide (final concentration: 20 μm), which has been dissolved in 5 ml of the solution of Example 1. After 20 minutes, the solution was removed, followed by centrifugation at an RCF of 12000, and then the size and quantity of extracellular vesicles were measured using a Nanoparticle Tracking Analysis (NTA) system (Nanosight LM10, Malvern Instruments).

HeLa cell line [8] = test: Loading of propidium iodide (PI) in extracellular vesicles, confocal microscope; details: HeLa transfected with HSP90; peptide 25 μM; 5 μg/ml PI; solution of Example 1; after 10 minutes
Description: Propidium iodide (PI), which is a drug poorly passing through cell membranes, is a fluorescent substance capable of being used to stain cells. First, the HSP90 protein was transfected into the HeLa cell line to prepare a cell line.
The control group was treated with only PI without any peptide, and the experiment group was treated with the eMTDΔ4 peptide (final concentration: 25 μM) and 5 μg/ml PI, which have been in combination dissolved in the solution of Example 1, and then after 10 minutes, the groups were observed by a confocal microscope.

293-HEK cell line [9] = test: Loading of plasmid DNA in extracellular vesicles, agarose gel electrophoresis; details: peptide 25 μM, PUC19 3 μg/ml, EGFP-C1 6 μg/ml, solution of Example 1
Description: After the 293-HEK cell line was cultured to 90% confluency in a 6-well plate, the culture was removed, and the cell line was treated with the eMTDΔ4 peptide (final concentration: 25 μM) and plasmid DNA (PUC19 3 μg/ml, EGFP-C1 6 μg/ml), which have been dissolved in the solution of Example 1.
1.15 ml of the supernatant was collected and 0.35 ml of Qiagen buffer P3 was added, thereby making a total volume of 1.5 ml, of which 0.75 ml was then passed through the DNA miniprep column (Qiagen), and the passed solution was purified with phenol and precipitated with ethanol.
After 30 μl of DNA bound to the column and 30 μl of DNA precipitated with ethanol were dissolved in water, 10 μl of DNA bound to the column and 10 μl of DNA precipitated with ethanol were subjected to agarose gel electrophoresis, and then stained with EtBr.

In the case of “KLNFRQKLLNLISKLF (eMTDdelta4) [eMTDΔ4, Noxa protein-derived peptide, 16aa]”, the “generation of extracellular vesicles” value (HeLa cell line [1]) is reported as “small extracellular vesicle particles were formed and settled on the bottom of the plate”, the “loading of doxorubicin in extracellular vesicles” value (HeLa cell line [2]) is reported as “the generated extracellular vesicles contained doxorubicin as well as the HSP90 protein” and the cell morphology (HeLa cell line [3]) is reported as “the cell morphology was damaged”. For the same sequence, the “extracellular vesicles containing HSP90 protein” value (HeLa cell line [3]) was “extracellular vesicles containing the HSP90 protein were settled on the bottom of the plate”, the “Protein detected or not (TRAIL in extracellular vesicles)” value (293-HEK cell line [4]) was “◯” and the “time to release of extracellular vesicles to the extracellular matrix” value (HeLa cell line [5]) was “within a few seconds after generation”. The “release of CD9 and CD81 proteins (extracellular vesicle indicators)” value (HeLa cell line [5]; observed for 10 minutes) was “CD9 and CD81 proteins were released into the extracellular matrix”, the “Amount of proteins contained in extracellular vesicles” value (shortened to “Amount of proteins contained”) (293-HEK cell line [6]; solution of Example 1, peptide 10 μM) was 4.93 µg/µL and the “Amount of proteins contained” value (293-HEK cell line [6]; solution of Example 1, peptide 20 μM) was 6.40 µg/µL. The “Amount of proteins contained” value (293-HEK cell line [6]; solution of Example 1, peptide 40 μM) was 7.56 µg/µL, the “Quantity of extracellular vesicles” value (293-HEK cell line [7]) was 7.44e+08 ± 6.51e+07 mL⁻¹ and the “loading of propidium iodide (PI) in extracellular vesicles” value (HeLa cell line [8]) was “the generated extracellular vesicles contained PI as well as the HSP90 protein”. For the same sequence, the “loading of plasmid DNA in extracellular vesicles” value (293-HEK cell line [9]) was “can be loaded in the extracellular vesicles”.

Reference: patent US12280148B2, “Composition for promoting extracellular vesicle production containing peptide derived from noxa protein and method for producing extracellular vesicles by using same” (Exocalibre Therapeutics Co., Ltd., priority 2020, dated 2025)
